Experimental findings from publication PMC9916770, “Lycorine Carbamate Derivatives for Reversing P-glycoprotein-Mediated Multidrug Resistance in Human Colon Adenocarcinoma Cells” (International Journal of Molecular Sciences, 2023) are described below.

The IC50 is the point on the concentration scale where inhibition reaches its midpoint.

The subject of one assay is Colo205 cells. The assay can be described thus: MTT antiproliferative assay, sensitive cells. In kind it is cell-based, human. Particulars: for IC50: Homo sapiens, COLO 205, sensitive Colo205, MTT, 72 h, mean ± SD. As to the method:
(§1) The human colon adenocarcinoma cell lines Colo205 doxorubicin-sensitive (CCL-222, ATCC, Manassas, VA, USA) and the resistant Colo320/MDR-LRP expressing P-gp were purchased from LGC Promochem (Teddington, UK). The MRC-5 human embryonal lung fibroblast cell line (CCL-171, ATCC) was purchased from Sigma-Aldrich (Merck KGaA, Darmstadt, Germany). The human colon adenocarcinoma cells (Colo205 and Colo320) were cultured in an RPMI 1640 medium supplemented with 10% fetal bovine serum (FBS), 2 mM L-glutamine, 1 mM Na-pyruvate, and 100 mM HEPES. The semi-adherent human colon cancer cells were detached with a trypsin-Versene (EDTA) solution for 5 min at 37 °C. The MRC-5 human embryonal lung fibroblast cells were cultured in EMEM containing 4.5 g/L of glucose and supplemented with a non-essential amino acid mixture, a selection of vitamins, and 10% FBS. The cell lines were incubated at 37 °C, 5% CO2, and 95% air atmosphere.
(§2) The antiproliferative effect of the compounds was tested in decreasing serial dilutions of compounds (starting with 100 µM, then two-fold serial dilution) on human cell lines (Colo205, Colo320, and MRC-5) in 96-well flat-bottomed microtiter plates. Firstly, the compounds were diluted in 100 µL of the medium, and then 6 × 10^3 cells (Colo205 and Colo320), in 100 µL of medium, were added to each well, excluding the medium control wells. The MRC-5 adherent cell line was seeded in the EMEM medium for at least 4 h before the assay. The two-fold serial dilutions of the compounds were made in a separate plate (100–0.19 μM) and then transferred to the plates containing the adherent corresponding cell line. Culture plates were incubated at 37 °C for 72 h, and at the end of the incubation period, 20 μL of MTT (thiazolyl blue tetrazolium bromide) solution (from a 5 mg/mL stock solution) was added to each well and incubated for an additional 4 h. Then, 100 μL of sodium dodecyl sulfate (SDS) solution (10% SDS in 0.01 M HCl) was added to each well, and the plates were further incubated at 37 °C overnight in a CO2 incubator. Cell growth was determined by measuring the optical density (OD) at 540/630 nm with a Multiscan EX ELISA reader (Thermo Labsystems, Cheshire, WA, USA). […] IC50 values and the standard deviation (SD) of triplicate experiments were calculated by using GraphPad Prism 5 software for Windows. Doxorubicin (2 mg/mL, Teva Pharmaceuticals, Budapest, Hungary) was used as a positive control and the vehicle DMSO as the negative control. (1) IC50=[ODsample−ODmedium control/ODcell control−ODmedium control]×100
(§3) The relative resistance (RR) was calculated as the ratio of the IC50 value in the resistant cancer cells and the IC50 in the sensitive cancer cell lines. The selectivity indexes (SI) were calculated as the ratio of the IC50 values in the non-tumor cells and the IC50 in the cancer cell lines. The activity of the compounds toward cancer cells is considered strongly selective if the selectivity index (SI) value is higher than 6, moderately selective if 3 < SI < 6, slightly selective if 1 < SI < 3, and non-selective if SI is lower than 1.

A further assay concerns Colo320 cells. The assay can be described thus: MTT antiproliferative assay, resistant cells. In kind it is cell-based, human. Particulars: for IC50: Homo sapiens, COLO 320, resistant Colo320, MTT, 72 h, mean ± SD, read-out: IC50 Colo320 (B). The protocol:
as §1, §2, §3

Another assay concerns MRC-5 cells. Nature of the assay: MTT antiproliferative assay, normal lung fibroblasts. In kind it is cell-based. Particulars: Homo sapiens, normal embryonal lung fibroblasts, 72 h, mean ± SD, read-out: IC50 MCR-5 (C). The protocol: as §1, §2, §3
On the technique in general: Formazan colour is commonly taken as a measure of viable cells.

SMILES strings stand for the structures. A value given as a limit tells only on which side of the number the result lay.

For the compound `Cc1ccc(CNC(=O)OC2C=C3CCN4Cc5cc6c(cc5C(C2O)C34)OCO6)cc1` (centres unmarked) [Compound 6, Lycorine 2-yl (4-methylbenzyl)carbamate], the IC50 with Colo205 cells, in the assay with Colo320 cells and with MRC-5 cells was above 100 µM in each case.
In the case of `COc1ccc(CNC(=O)OC2C=C3CCN4Cc5cc6c(cc5C(C2O)C34)OCO6)cc1` (centres unmarked) [Compound 11, Lycorine 2-yl (4-methoxylbenzyl)carbamate], the concentration for half-maximal inhibition (IC50) with Colo205 cells, with Colo320 cells and in the assay on MRC-5 cells was above 100 µM throughout.
With `COc1ccc(CCNC(=O)OC2C=C3CCN4Cc5cc6c(cc5C(C2OC(=O)NCCc2ccc(OC)cc2)C34)OCO6)cc1` (centres unmarked) [Compound 4, Lycorine 1,2-diyl bis [(4-methoxyphenethyl)carbamate]], the half-maximal inhibitory concentration (IC50) in the assay with Colo205 cells, in the assay with Colo320 cells and with MRC-5 cells was above 100 µM each time.
For the compound `O=C(OC1C=C2CCN3Cc4cc5c(cc4C(C1O)C23)OCO5)N1CCCC1` (centres unmarked) [Compound 15, Lycorine 2-yl pyrrolidine-1-carboxylate], the IC50 with Colo205 cells, with Colo320 cells and in the assay with MRC-5 cells was above 100 µM each time.
As to `CN(Cc1ccccc1)C(=O)OC1C=C2CCN3Cc4cc5c(cc4C(C1O)C23)OCO5` (centres unmarked) [Compound 12, Lycorine 2-yl benzyl(methyl)carbamate], the IC50 in the assay on Colo205 cells, with Colo320 cells and with MRC-5 cells was above 100 µM in each case.
For the compound `O=C(NCc1ccccc1F)OC1C=C2CCN3Cc4cc5c(cc4C(C1O)C23)OCO5` (centres unmarked) [Compound 21, Lycorine 2-yl (2-fluorobenzyl)carbamate], the IC50 in the assay on Colo205 cells, in the assay with Colo320 cells and with MRC-5 cells was above 100 µM in each case.
With `O=C(NCc1ccc2c(c1)OCO2)OC1C=C2CCN3Cc4cc5c(cc4C(C1O)C23)OCO5` (centres unmarked) [Compound 8, Lycorine 2-yl (piperonyl)carbamate], the IC50 in the assay with Colo205 cells, in the assay with Colo320 cells and with MRC-5 cells was above 100 µM in each case.
Turning to `O=C(OC1C=C2CCN3Cc4cc5c(cc4C(C1O)C23)OCO5)N1CCOCC1` (centres unmarked) [Compound 3, Lycorine 2-yl morpholine-4-carboxylate], the IC50 in the assay on Colo205 cells, in the assay on Colo320 cells and in the assay on MRC-5 cells was above 100 µM each time.
As to `O=C(NCCc1ccc(F)cc1)OC1C=C2CCN3Cc4cc5c(cc4C(C1OC(=O)NCCc1ccc(F)cc1)C23)OCO5` (centres unmarked) [Compound 23, Lycorine 1,2-diyl bis[(4-fluorophenethyl) carbamate]], the IC50 was above 100 µM with Colo205 cells, above 100 µM in the assay on Colo320 cells and 3.79 ± 0.21 µM with MRC-5 cells. In the assay on Colo205 cells (IC50 MRC-5 / IC50 Colo205), the “SI (selectivity index) C/A” value is listed as below 0.037. The “SI (selectivity index) C/B” value in the assay on Colo320 cells (IC50 MRC-5 / IC50 Colo320) is listed as below 0.037.
Regarding `O=C(NCc1ccc(F)cc1)OC1C=C2CCN3Cc4cc5c(cc4C(C1O)C23)OCO5` (centres unmarked) [Compound 28, Lycorine 2-yl (4-fluorobenzyl)carbamate], the IC50 in the assay with Colo205 cells, in the assay with Colo320 cells and with MRC-5 cells was above 100 µM in each case.
For the compound `CCCNC(=O)OC1C=C2CCN3Cc4cc5c(cc4C(C1O)C23)OCO5` (centres unmarked) [Compound 30, Lycorine 2-yl propylcarbamate], the IC50 in the assay with Colo205 cells, in the assay on Colo320 cells and with MRC-5 cells was above 100 µM throughout.
In the case of `O=C(NCc1ccc2c(c1)OCO2)OC1C=C2CCN3Cc4cc5c(cc4C(C1OC(=O)NCc1ccc4c(c1)OCO4)C23)OCO5` (centres unmarked) [Compound 7, Lycorine 1,2-diyl bis[(piperonyl)carbamate]], the IC50 with Colo205 cells, with Colo320 cells and in the assay on MRC-5 cells was above 100 µM throughout.
On to `O=C(NCCc1ccc(F)cc1)OC1C=C2CCN3Cc4cc5c(cc4C(C1O)C23)OCO5` (centres unmarked) [Compound 24, Lycorine 2-yl (4-fluorophenethyl)carbamate], for which the IC50 with Colo205 cells, in the assay with Colo320 cells and with MRC-5 cells was above 100 µM in each case.
With `CCCNC(=O)OC1C=C2CCN3Cc4cc5c(cc4C(C1OC(=O)NCCC)C23)OCO5` (centres unmarked) [Compound 29, Lycorine 1,2-diyl bis(propylcarbamate)], the IC50 in the assay with Colo205 cells, in the assay on Colo320 cells and in the assay on MRC-5 cells was above 100 µM each time.
For `O=C(OC1C=C2CCN3Cc4cc5c(cc4C(C1O)C23)OCO5)N1CCCCC1` (centres unmarked) [Compound 17, Lycorine 2-yl piperidine-1-carboxylate], the IC50 in the assay on Colo205 cells, in the assay with Colo320 cells and in the assay with MRC-5 cells was above 100 µM each time.
Turning to `O=C(NCc1ccccc1F)OC1C=C2CCN3Cc4cc5c(cc4C(C1OC(=O)NCc1ccccc1F)C23)OCO5` (centres unmarked) [Compound 20, Lycorine 1,2-diyl bis[(2-fluorobenzyl)carbamate]], the IC50 with Colo205 cells, with Colo320 cells and in the assay on MRC-5 cells was above 100 µM throughout.
`O=C(NCc1cccc(C(F)(F)F)c1)O[C@H]1[C@H]2c3cc4c(cc3CN3CCC(=C[C@@H]1OC(=O)NCc1cccc(C(F)(F)F)c1)[C@H]23)OCO4` [Compound 22, Lycorine 1,2-diyl bis[(3-(trifluoromethyl)benzyl)carbamate]]: the IC50 in the assay on Colo205 cells, in the assay with Colo320 cells and in the assay with MRC-5 cells was above 100 µM in each case.
With `O=C(NCc1ccccc1)OC1C=C2CCN3Cc4cc5c(cc4C(C1OC(=O)NCc1ccccc1)C23)OCO5` (centres unmarked) [Compound 32, Lycorine 1,2-diyl bis(benzylcarbamate)], the IC50 in the assay on Colo205 cells was above 100 µM; in the assay on Colo320 cells it was above 100 µM; with MRC-5 cells it was 71.9 ± 5.38 µM.
For the compound `O=C(OC1C=C2CCN3Cc4cc5c(cc4C(C1OC(=O)N1CCCC1)C23)OCO5)N1CCCC1` (centres unmarked) [Compound 14, Lycorine 1,2-diyl bis(pyrrolidine-1-carboxylate)], the IC50 with Colo205 cells, with Colo320 cells and in the assay with MRC-5 cells was above 100 µM throughout.
`CC(C)(C)c1ccc(CNC(=O)OC2C=C3CCN4Cc5cc6c(cc5C(C2OC(=O)NCc2ccc(C(C)(C)C)cc2)C34)OCO6)cc1` (centres unmarked) [Compound 18, Lycorine 1,2-diyl bis[(4-(tert-butyl)benzyl)carbamate]]: the IC50 in the assay with Colo205 cells, in the assay with Colo320 cells and with MRC-5 cells was above 100 µM throughout.
Consider `O=C(NCCc1ccccc1)O[C@H]1C=C2CCN3Cc4cc5c(cc4[C@H]([C@@H]1O)[C@@H]23)OCO5` [Compound 10, lycorine 2-yl phenethylcarbamate], for which the half-inhibitory concentration (IC50) in the assay on Colo205 cells, with Colo320 cells and with MRC-5 cells was above 100 µM throughout.
Take `O=C(NCc1ccc(F)cc1)OC1C=C2CCN3Cc4cc5c(cc4C(C1OC(=O)NCc1ccc(F)cc1)C23)OCO5` (centres unmarked) [Compound 27, Lycorine 1,2-diyl bis[(4-fluorobenzyl)carbamate]]: the IC50 in the assay on Colo205 cells, with Colo320 cells and in the assay on MRC-5 cells was above 100 µM throughout.
